From PubChem BioAssay (NCI)
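How tested: cells in 96-well plates exposed to compound for 48 hours at five concentrations. GI50: concentration for 50% inhibition of growth. TGI is the concentration that stops growth completely.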

What was measured:
Assay in all cases: inhibition of tumour cell growth, NCI panel, 48 h
[1] = system: 786-0 renal
[2] = system: A498 renal
[3] = system: A549 NSCLC
[4] = system: ACHN renal
[5] = system: BT-549 breast
[6] = system: CAKI-1 renal
[7] = system: CCRF-CEM leukemia
[8] = system: COLO 205 colon
[9] = system: DU-145 prostate
[10] = system: EKVX NSCLC
[11] = system: HCC-2998 colon
[12] = system: HCT-116 colon
[13] = system: HCT-15 colon
[14] = system: HL-60(TB) leukemia
[15] = system: HOP-62 NSCLC
[16] = system: HOP-92 NSCLC
[17] = system: HS 578T breast
[18] = system: HT29 colon
[19] = system: IGROV1 ovarian
[20] = system: K-562 leukemia
[21] = system: KM12 colon
[22] = system: M14 melanoma
[23] = system: MALME-3M melanoma
[24] = system: MCF7 breast
[25] = system: MDA-MB-231 breast
[26] = system: MDA-MB-435
[27] = system: MOLT-4 leukemia
[28] = system: NCI-H226 lung
[29] = system: NCI-H23 lung
[30] = system: NCI-H460 lung
[31] = system: NCI-H522 lung
[32] = system: NCI/ADR-RES ovarian
[33] = system: OVCAR-4 ovarian
[34] = system: OVCAR-5 ovarian
[35] = system: OVCAR-8 ovarian
[36] = system: PC-3 prostate
[37] = system: RPMI-8226 leukemia
[38] = system: RXF 393 renal
[39] = system: SF-268 CNS
[40] = system: SF-295 CNS
[41] = system: SF-539 CNS
[42] = system: SK-MEL-2 melanoma
[43] = system: SK-MEL-28 melanoma
[44] = system: SK-MEL-5 melanoma
[45] = system: SK-OV-3 ovarian
[46] = system: SN12C renal
[47] = system: SNB-19 CNS
[48] = system: SNB-75 CNS
[49] = system: SR leukemia
[50] = system: SW-620 colon
[51] = system: T-47D breast
[52] = system: TK-10 renal
[53] = system: U251 CNS
[54] = system: UACC-257 melanoma
[55] = system: UACC-62 melanoma
[56] = system: UO-31 renal

O=C(NCCCNc1cc(-c2cn(-c3ccccc3)nc2-c2cccc(O)c2)ccn1)Nc1cccc(C(F)(F)F)c1
GI50 [1]: 1.07 µM | TGI [1]: 3.71 µM | GI50 [2]: 3.17 µM | TGI [2]: 7.18 µM | GI50 [3]: 3.35 µM | TGI [3]: 11.2 µM | GI50 [4]: 5.23 µM | TGI [4]: 15.5 µM | GI50 [5]: 3.26 µM | TGI [5]: 7.63 µM | GI50 [6]: 1.9 µM | TGI [6]: 12.3 µM | GI50 [7]: 1.71 µM | TGI [7]: 33.3 µM | GI50 [8]: 2.97 µM | TGI [8]: 8.72 µM | GI50 [9]: 4.8 µM | TGI [9]: 11.9 µM | GI50 [10]: 3.5 µM | TGI [10]: 8.45 µM | GI50 [11]: 1.26 µM | TGI [11]: 4.34 µM | GI50 [12]: 1.97 µM | TGI [12]: 6.33 µM | GI50 [13]: 1.06 µM | TGI [13]: 4.32 µM | GI50 [14]: 3.42 µM | TGI [14]: 14.5 µM | GI50 [15]: 4.09 µM | TGI [15]: 9.59 µM | GI50 [16]: 1.25 µM | TGI [16]: 6.01 µM | GI50 [17]: 1.34 µM | TGI [17]: 7.74 µM | GI50 [18]: 1.51 µM | TGI [18]: 6.19 µM | GI50 [19]: 2.83 µM | TGI [19]: 7.89 µM | GI50 [20]: 1.26 µM | TGI [20]: 33.3 µM | GI50 [21]: 2.63 µM | TGI [21]: 7.39 µM | GI50 [22]: 2.18 µM | TGI [22]: 6.99 µM | GI50 [23]: 1.54 µM | TGI [23]: 6.08 µM | GI50 [24]: 2.73 µM | TGI [24]: 9.39 µM | GI50 [25]: 2.85 µM | TGI [25]: 7.76 µM | GI50 [26]: 3.41 µM | TGI [26]: 7.57 µM | GI50 [27]: 1.67 µM | TGI [27]: 15 µM | GI50 [28]: 4.88 µM | TGI [28]: 11.5 µM | GI50 [29]: 4.34 µM | TGI [29]: 9.34 µM | GI50 [30]: 3.48 µM | TGI [30]: 8.89 µM | GI50 [31]: 5.12 µM | TGI [31]: 11 µM | GI50 [32]: 4.9 µM | TGI [32]: 12.8 µM | GI50 [33]: 2.13 µM | TGI [33]: 7.75 µM | GI50 [34]: 3.96 µM | TGI [34]: 9.71 µM | GI50 [35]: 3.88 µM | TGI [35]: 10 µM | GI50 [36]: 1.79 µM | TGI [36]: 11.2 µM | GI50 [37]: 0.727 µM | TGI [37]: 6.12 µM | GI50 [38]: 1.08 µM | TGI [38]: 4.96 µM | GI50 [39]: 3.26 µM | TGI [39]: 9.69 µM | GI50 [40]: 1.76 µM | TGI [40]: 6.42 µM | GI50 [41]: 2.78 µM | TGI [41]: 7.18 µM | GI50 [42]: 5.29 µM | TGI [42]: 11.7 µM | GI50 [43]: 3.48 µM | TGI [43]: 7.51 µM | GI50 [44]: 3.25 µM | TGI [44]: 7.16 µM | GI50 [45]: 4.49 µM | TGI [45]: 10.1 µM | GI50 [46]: 3.65 µM | TGI [46]: 7.91 µM | GI50 [47]: 3.99 µM | TGI [47]: 8.97 µM | GI50 [48]: 0.743 µM | TGI [48]: 4.1 µM | GI50 [49]: 1.65 µM | TGI [49]: 12.8 µM | GI50 [50]: 3.85 µM | TGI [50]: 8.31 µM | GI50 [51]: 3.42 µM | TGI [51]: 16.7 µM | GI50 [52]: 5.75 µM | TGI [52]: 13.2 µM | GI50 [53]: 2.57 µM | TGI [53]: 7.45 µM | GI50 [54]: 4.8 µM | TGI [54]: 10.1 µM | GI50 [55]: 4.41 µM | TGI [55]: 8.84 µM | GI50 [56]: 2.1 µM | TGI [56]: 10.8 µM
